Reference: US5981517A, “Androstene derivatives” (priority 1997, dated 1999)

How the values were obtained:
[1] = tested on: forearms of a human volunteer; assay: Further human vasoconstriction testing, Method 1; format: in vivo; also: key: 0: normal skin; 1: slight pallor of indistinct outline; 2: pallor with at least two corners outlined; 3: even pallor with a clear outline of the application sites; 4: very intense pallor
In short: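 Each mixture, 50 μL in ethanol, was loaded onto circular 8 mm patches. Once the ethanol had evaporated, the patches were placed on a human volunteer's forearms under a water-impervious film for 3 hr. After the patches were removed, vasoconstriction was scored at intervals from 0 (normal skin) to 4 (very intense pallor). The same individual received all tests, run 2-4 times per compound.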

[2] = in vitro; format: in vitro ADME; conditions: rat, lung cytosol
Method: To determine that the compounds of the invention can be stable during the incubation period, the test compounds A, B, C, and D were investigated for their stabilities at the incubation conditions, which are room temperature and 2 hours, for receptor binding studies. The frozen cytosol which was made for the receptor binding study was thawed in a water bath and diluted with 1 part of incubation buffer (10 mM Tris/HCl, 10 mM sodium molybdate, and 2 mM 1,4-dithiothreitol) containing a 15 mM concentration of enzyme inhibitor, diisopropyl fluorophosphate. Portions (560 μL) of the diluted cytosol were added to centrifuge tubes containing 80 μL portions of blank incubation buffer instead of volume of tracer ([^3 H]triamcinolone acetonide) which would be used in the receptor binding study (RBS), 80 μL of solution of a Δ^1 -cortienic acid (0.1 mM) in buffer (the final concentration of Δ^1 -cortienic acid in the incubation medium was […]), and 80 μL of 100,000 nM of concentrations of test compounds in ethanol to give a final concentration of 10,000 nM. This mixture was kept at room temperature for 2 hours. Samples of 0.1 mL were taken at appropriate time intervals (0, 0.5, 1, 1.5, 2 hours) and were mixed with 0.2 mL of acetonitrile containing 5% DMSO. Each mixture was centrifuged and the supernatant were injected in the HPLC.
Male Sprague-Dawley rats, each weighing 150 to 200 g, were used 6 days after adrenalectomy. Rats were sacrificed by decapitation. Immediately after resection of the lungs, the tissue was frozen in ice. The cytosol was prepared using a slight modification of a previously described method (Dahlberg, 1984); After addition of 6 volumes of ice-cold incubation buffer (10 mM Tris/HCl, 10 mM sodium molybdate, and 2 mM 1,4-dithiothreitol), the tissue was homogenized with the Virtis 45 homogenizer at full speed, for 4 periods of 10 seconds with a 10-second cooling period between each step. The homogenate was centrifuged at 35,000 g for 1 hour at 4° C. in a Beckman ultracentrifuge L8-70M equipped with a T170 rotor. Portions (5 ml) of the cytosol were frozen in liquid nitrogen and stored at -80° C.

[3] = biological target: T1, rat lung glucocorticoid receptor (Rattus norvegicus, UniProt P06536); assay: Receptor binding studies ([3H]triamcinolone acetonide displacement); parameters: Receptor binding affinity: scale not given here; conditions: for RBA: further receptor binding studies (Table X), dexamethasone = 100, * mean ± SE of 3-5 results; for IC50: rat lung cytosol, 10 nM [3H]triamcinolone acetonide, 2 h, 24° C., read-out: IC50; for IC50 / Relative binding affinity (RBA): with Δ1-cortienic acid; for Relative binding affinity (RBA): with respect to dexamethasone (RBA = 100)
T1 construct: Immediately after resection of the lungs, the tissue was frozen in ice; The cytosol was prepared; from tissue; host or cells: lung cytosol of adrenalectomized male Sprague-Dawley rats
T1 sequence (P06536 1-795): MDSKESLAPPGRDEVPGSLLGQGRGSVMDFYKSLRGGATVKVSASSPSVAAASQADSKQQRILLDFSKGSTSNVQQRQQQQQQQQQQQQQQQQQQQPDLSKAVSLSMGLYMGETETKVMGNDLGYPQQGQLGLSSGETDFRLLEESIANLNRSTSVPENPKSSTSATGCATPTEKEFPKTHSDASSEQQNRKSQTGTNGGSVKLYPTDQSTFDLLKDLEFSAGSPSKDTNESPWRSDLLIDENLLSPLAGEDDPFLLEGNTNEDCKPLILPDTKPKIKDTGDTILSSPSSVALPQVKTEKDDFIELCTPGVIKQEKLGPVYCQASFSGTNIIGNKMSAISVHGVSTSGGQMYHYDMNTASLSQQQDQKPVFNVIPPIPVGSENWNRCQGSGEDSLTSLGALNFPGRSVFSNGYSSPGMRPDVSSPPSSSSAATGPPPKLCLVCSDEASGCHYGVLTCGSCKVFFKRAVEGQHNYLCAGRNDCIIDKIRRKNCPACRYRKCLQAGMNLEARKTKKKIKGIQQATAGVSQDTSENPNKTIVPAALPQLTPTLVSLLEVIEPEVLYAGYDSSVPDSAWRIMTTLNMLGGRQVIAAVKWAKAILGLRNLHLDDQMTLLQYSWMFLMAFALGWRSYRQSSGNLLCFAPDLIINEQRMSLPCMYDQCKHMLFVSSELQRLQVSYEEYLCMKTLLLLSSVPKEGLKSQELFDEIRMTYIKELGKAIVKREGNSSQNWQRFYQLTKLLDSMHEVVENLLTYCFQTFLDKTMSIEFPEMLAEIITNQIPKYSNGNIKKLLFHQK
Method: Male Sprague-Dawley rats, each weighing 150 to 200 g, were used 6 days after adrenalectomy. Rats were sacrificed by decapitation. Immediately after resection of the lungs, the tissue was frozen in ice. […] Portions (5 ml) of the cytosol were frozen in liquid nitrogen and stored at -80° C.
The cytosol was thawed in a water bath and diluted with 1 part of incubation buffer containing a 15 mM concentration of diisopropyl fluorophosphate. […] After a 2 hour incubation period at room temperature (24° C.), the unbound steroid was removed by addition of a 2% suspension of activated charcoal in incubation buffer (400 μL). The mixture was incubated for 5 minutes at room temperature and then was centrifuged at about 10,000 g for 3 minutes in the microcentrifuge. The radioactivity (cpm) in the supernatant (400 μL) was determined by liquid scintillation counting.
The data is fitted to the following logistic function:
B=T-T * C^N /(C^N +IC50^N)+NS,
where B=CPM in the presence of competitor, T=CPM in the absence of competitor, C=competitor concentration, N=Hill slope factor, and NS=cpm under non-specific binding conditions.
For the representative compound of the invention B, receptor binding affinity was investigated with and without Δ^1 -cortienic acid in the incubation solution to study the effect of Δ^1 -cortienic acid on the receptor binding.
Further studies to evaluate the relative receptor binding affinities of compounds of the invention, other compounds of formula (VII) hereinabove and well-known anti-inflammatory steroids were undertaken, using the methods described in the RECEPTOR BINDING STUDIES set forth above. […] For comparison purposes, the following compounds having formula (VII) above were also tested: […]

[4] = 24 Hours, 1 hour re-occlusion at 20-21 hours, 0.01 mM
[5] = 24 Hours, 1 hour re-occlusion at 20-21 hours, 0.05 mM
[6] = 24 Hours, 1 hour re-occlusion at 20-21 hours, 0.1 mM
[7] = 24 Hours, 1 hour re-occlusion at 20-21 hours, 0.5 mM

Row | SMILES | Vasoconstriction activity ([1]; 3 Hours, 10 mM) | Vasoconstriction activity ([1]; 20 Hours, 10 mM) | remaining at 2 h [2] [%] | remaining at 2 h, 10 µM [2] [%] | RBA [3] | IC50 [3] [nM] | Relative binding affinity (RBA) [3] | Vasoconstriction activity ([1]; 3 Hours, 0.01 mM) | Vasoconstriction activity ([1]; 3 Hours, 0.05 mM) | Vasoconstriction activity ([1]; 3 Hours, 0.1 mM) | Vasoconstriction activity ([1]; 3 Hours, 0.5 mM) | Vasoconstriction activity ([1]; 3 Hours, 1 mM) | Vasoconstriction activity ([1]; 3 Hours, 5 mM) | Vasoconstriction activity ([1]; 20 Hours, 0.01 mM) | Vasoconstriction activity ([1]; 20 Hours, 0.05 mM) | Vasoconstriction activity ([1]; 20 Hours, 0.1 mM) | Vasoconstriction activity ([1]; 20 Hours, 0.5 mM) | Vasoconstriction activity ([1]; 20 Hours, 1 mM) | Vasoconstriction activity ([1]; 20 Hours, 5 mM) | Vasoconstriction activity [1, 4] | also measured
1 | CC(C)OC(=O)[C@@]1(OC(=O)C(Cl)Cl)CC[C@H]2[C@@H]3CCC4=CC(=O)C=C[C@]4(C)[C@H]3[C@@H](O)C[C@@]21C [Compound C, Isopropyl 17α-dichloroacetoxy-11β-hydroxyandrosta-1,4-dien-3-one-17β-carboxylate] | 4 | 1 | > 90 | 100 | 117 | 69.8 | 117 |  |  |  |  |  |  |  |  |  |  |  |  |  | 
2 | CCOC(=O)[C@@]1(OC(=O)C(Cl)Cl)[C@H](C)C[C@H]2[C@@H]3CCC4=CC(=O)C=C[C@]4(C)[C@@]3(F)[C@@H](O)C[C@@]21C [J, ethyl 17α-dichloroacetoxy-9α-fluoro-11β-hydroxy-16α-methylandrosta-1,4-dien-3-one-17β-carboxylate] | 4 | 2 | > 90 |  | 687 ± 49 |  |  | 0 | 1 | 2 | 2 | 3 | 3 | 0 | 0 | 0 | 1 | 1 | 1 | 1 | Vasoconstriction activity [1, 5]: 1; Vasoconstriction activity [1, 6]: 2; Vasoconstriction activity [1, 7]: 2
3 | C[C@]12C=CC(=O)C=C1CC[C@@H]1[C@@H]2[C@@H](O)C[C@@]2(C)[C@H]1CC[C@]2(OC(=O)C(Cl)Cl)C(=O)OCCl [Compound D, Chloromethyl 17α-dichloroacetoxy-11β-hydroxyandrosta-1,4-dien-3-one-17β-carboxylate] | 4 | 1 | 70 | 70.6 | 684 | 11.9 | 684 |  |  |  |  |  |  |  |  |  |  |  |  |  | 
4 | CCOC(=O)[C@@]1(OC(=O)C(Cl)Cl)CC[C@H]2[C@@H]3CCC4=CC(=O)C=C[C@]4(C)[C@H]3[C@@H](O)C[C@@]21C [Compound B, Ethyl 17α-dichloroacetoxy-11β-hydroxyandrosta-1,4-dien-3-one-17β-carboxylate] | 4 | 2 | 75 | 100 | 222 ± 16 | 40.1 | 204 | 0 | 1 | 1 | 2 | 3 | 3 | 0 | 0 | 1 | 1 | 1 | 1 | 1 | Vasoconstriction activity [1, 5]: 1; Vasoconstriction activity [1, 6]: 2; Vasoconstriction activity [1, 7]: 2; Receptor binding affinity ([3]; With Δ1-cortienic acid (Table IX)): 204; Receptor binding affinity ([3]; Without Δ1-cortienic acid (Table IX)): 181
5 | COC(=O)[C@@]1(OC(=O)C(Cl)Cl)[C@H](C)C[C@H]2[C@@H]3CCC4=CC(=O)C=C[C@]4(C)[C@@]3(F)[C@@H](O)C[C@@]21C [Compound I, methyl 17α-dichloroacetoxy-9α-fluoro-11β-hydroxy-16α-methylandrosta-1,4-dien-3-one-17β-carboxylate] | 4 |  | > 90 |  | 1745 ± 185 |  | 495 | 1 | 2 | 2 | 3 | 4 | 4 | 0 | 1 | 1 | 1 | 1 | 2 | 1 | Vasoconstriction activity [1, 5]: 2; Vasoconstriction activity [1, 6]: 3; Vasoconstriction activity [1, 7]: 3
6 | CCCCC(=O)O[C@]1(C(=O)CO)[C@@H](C)C[C@H]2[C@@H]3CCC4=CC(=O)C=C[C@]4(C)[C@@]3(F)[C@@H](O)C[C@@]21C [Betamethasone 17-valerate, reference compound] | 4 | 2 |  |  | 1742 ± 130 |  |  | 0 | 1 | 1 | 2 | 3 | 3 | 0 | 1 | 1 | 1 | 1 | 1 | 1 | Vasoconstriction activity [1, 5]: 1; Vasoconstriction activity [1, 6]: 2; Vasoconstriction activity [1, 7]: 2
7 | COC(=O)[C@@]1(OC(=O)C(Cl)Cl)CC[C@H]2[C@@H]3CCC4=CC(=O)C=C[C@]4(C)[C@H]3[C@@H](O)C[C@@]21C [Compound A, Methyl 17α-dichloroacetoxy-11β-hydroxyandrosta-1,4-dien-3-one-17β-carboxylate] | 4 | 2 | 75 | 75.1 | 165 | 49.5 | 165 |  |  |  |  |  |  |  |  |  |  |  |  |  | 
